Measured values: patent US20230192617A1, “AZABICYCLIC(THIO)AMIDES AS FUNGICIDAL COMPOUNDS” (Bayer CropScience Aktiengesellschaft, priority 2020, published 2023)

Columns and labels:
[1] = Measurement of Log P values by HPLC on reversed phase columns (EEC directive 79/831 Annex V.A8); assay type: physicochemical; conditions: method [a]: LC-UV, acidic range, 0.1% formic acid in water and acetonitrile as eluent; for chromatographic logP: reversed phase HPLC column
Summary of the method: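 Log P derived from retention on reversed-phase columns (EEC directive 79/831 Annex V.A8), LC-UV, acetonitrile gradient 10% to 95% against water containing 0.1% formic acid, 0.001 M ammonium acetate, or 0.1% phosphoric acid; several values per method separated by "+".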

Pyrenophora teres = test: B-10. Pyrenophora teres in vitro cell test; assay type: cell-based; conditions: 144 h, 20 ppm of active ingredient, 6 days incubation, liquid culture, absorbance, read-out: efficacy (inhibition of fungal growth)
Description: (§1) B-10. Pyrenophora teres In Vitro Cell Test [table] Fungicides were solubilized in DMSO and the solution used to prepare the required range of concentrations. The final concentration of DMSO used in the assay was ≤1%. A spore suspension of P. teres was prepared and diluted to the desired spore density. Fungicides were evaluated for their ability to inhibit spore germination and mycelium growth in liquid culture assay. The compounds were added in the desired concentration to the culture medium with spores. After 6 days incubation, fungi-toxicity of compounds was determined by spectrometric measurement of mycelium growth. Inhibition of fungal growth was determined by comparing the absorbance values in wells containing the fungicides with the absorbance in control wells without fungicides.

Botrytis cinerea [2] = test: In vivo preventive test on Botrytis cinerea (grey mould); conditions: 500 ppm of active ingredient, preventive spray on gherkin or cabbage, evaluated 4 to 5 days after inoculation, read-out: efficacy
Description: B-2. In Vivo Preventive Test on Botrytis cinerea (Grey Mould) [table] The active ingredients were made soluble and homogenized in a mixture of Dimethyl sulfoxide/Acetone/Tween® 80 and then diluted in water to the desired concentration. The young plants of gherkin or cabbage were treated by spraying the active ingredient prepared as described above. Control plants were treated only with an aqueous solution of Acetone/Dimethyl sulfoxide/Tween® 80. After 24 hours, the plants were contaminated by spraying the leaves with an aqueous suspension of Botrytis cinerea spores. The contaminated gherkin plants were incubated for 4 to 5 days at 17° C. and at 90% relative humidity. The contaminated cabbage plants were incubated for 4 to 5 days at 20° C. and at 100% relative humidity.

[3] = system: Colletotrichum lindemuthianum; test: B-8. Colletotrichum lindemuthianum in vitro cell test; assay type: cell-based; conditions: 144 h, 20 ppm of active ingredient, 6 days incubation, liquid culture, absorbance, read-out: efficacy (inhibition of fungal growth)
Description: as §1, with “B-8. Colletotrichum lindemuthianum In” for “B-10. Pyrenophora teres In”, “of C. lindemuthianum” for “of P. teres”, “inhibit spores” for “inhibit spore”

Alternaria alternata = Alternaria alternata in vitro cell test; assay type: cell-based; conditions: 120 h, 20 ppm of active ingredient, liquid culture, 5 days incubation, spectrometric measurement of mycelium growth, read-out: efficacy (inhibition of fungal growth)
Description: as §1, with “B-6. Alternaria alternata” for “B-10. Pyrenophora teres”, “A. alternata” for “P. teres”, “5” for “6”

Botrytis cinerea [4] = test: B-11. Botrytis cinerea in vitro cell test; assay type: cell-based; conditions: 144 h, 20 ppm of active ingredient, 6 days incubation, liquid culture, absorbance, read-out: efficacy (inhibition of fungal growth)
Description: as §1, with “B-11. Botrytis cinerea” for “B-10. Pyrenophora teres”, “B. cinerea” for “P. teres”

Alternaria brassicae = test: In vivo preventive test on Alternaria brassicae (leaf spot on radish or cabbage); conditions: 500 ppm of active ingredient, preventive spray on radish or cabbage, evaluated 3 to 4 days after inoculation, read-out: efficacy
Description: B-1. In Vivo Preventive Test on Alternaria brassicae (Leaf Spot on Radish or Cabbage) [table] The active ingredients were made soluble and homogenized in a mixture of Dimethyl sulfoxide/Acetone/Tween® 80 and then diluted in water to the desired concentration. The young plants of radish or cabbage were treated by spraying the active ingredient prepared as described above. Control plants were treated only with an aqueous solution of Acetone/Dimethyl sulfoxide/Tween® 80. After 24 hours, the plants were contaminated by spraying the leaves with an aqueous suspension of Alternaria brassicae spores. The contaminated radish or cabbage plants were incubated for 3 to 4 days at 20° C. and at 100% relative humidity.

Row | SMILES | chromatographic logP [1] | LogP [1] | inhibition at 20 ppm (Pyrenophora teres) [%] | pest or weed control at 500 ppm (Botrytis cinerea [2]) [%] | inhibition at 20 ppm [3] [%] | inhibition at 20 ppm (Alternaria alternata) [%] | inhibition at 20 ppm (Botrytis cinerea [4]) [%] | pest or weed control at 500 ppm (Alternaria brassicae) [%]
1 | Cc1ccc2c(c1)[C@@H](NC(=O)c1c(Oc3cccc(C(F)(F)F)c3)nnc3ccccc13)COC2 (racemic) [I-083] | 3.73 |  | 90 to 100 | 90 to 100 | 90 to 100 | 80 to 89 | 90 to 100 | 90 to 100
2 | O=C(N[C@H]1CCCc2sc(C3CC3)nc21)c1c(Oc2cccc(C(F)(F)F)c2)nnc2ccccc12 (racemic) [I-091] | 3.92 |  | 90 to 100 |  | 80 to 89 | 70 to 79 | 90 to 100 | 
3 | COc1ccc(CCN(C(C)=O)C(=O)c2c(Oc3cccc(C(F)(F)F)c3)nnc3ccccc23)cc1 [I-090] | 4.32 |  | 90 to 100 | 90 to 100 | 80 to 89 |  | 90 to 100 | 90 to 100
4 | N#Cc1ccc(C(F)(F)CNC(=O)c2c(Oc3cccc(C(F)(F)F)c3)nnc3ccccc23)c(Cl)c1 [I-098] | 3.94 |  | 90 to 100 | 90 to 100 |  | 80 to 89 | 90 to 100 | 
5 | O=C(N[C@H]1CCOc2cc(F)ccc21)c1c(Oc2cccc(C(F)(F)F)c2)nnc2ccccc12 [I-178] | 3.69 |  | 90 to 100 |  | 90 to 100 |  | 90 to 100 | 90 to 100
6 | O=C(N[C@H]1CCCc2cc(Br)ccc21)c1c(Oc2cccc(C(F)(F)F)c2)nnc2ccccc12 (racemic) [I-193] | 4.66 |  | 90 to 100 |  | 90 to 100 | 70 to 79 | 90 to 100 | 
7 | C=C(OCC)c1ccc(C(F)(F)CNC(=O)c2c(Oc3cccc(C(F)(F)F)c3)nnc3ccccc23)c(Cl)c1 [I-169] | 5.16 |  | 90 to 100 |  | 80 to 89 |  | 90 to 100 | 90 to 100
8 | COc1ccc2c(c1)[C@@H](NC(=O)c1c(Oc3cccc(C(F)(F)F)c3)nnc3ccccc13)[C@@H](OC)CC2 (mixture of isomers) [I-180] | 3.78 | 4.02 | 90 to 100 | 80 to 89 | 90 to 100 |  | 90 to 100 | 90 to 100
9 | O=C(NC[C@H](F)c1ccc(Cl)c(Cl)c1)c1c(Oc2cccc(C(F)(F)F)c2)nnc2ccccc12 (racemic) [I-182] | 4.33 |  | 90 to 100 |  | 80 to 89 | 90 to 100 | 80 to 89 | 
10 | Cc1ccc(C(F)(F)CNC(=O)c2c(Oc3cccc(C(F)(F)F)c3)nnc3cc(F)ccc23)c(C)c1 [I-166] | 4.74 |  | 90 to 100 |  | 90 to 100 | 90 to 100 | 90 to 100 | 
11 | Cn1cc(-c2ccc(C(F)(F)CNC(=O)c3c(Oc4cccc(C(F)(F)F)c4)nnc4ccccc34)c(Cl)c2)cn1 [I-065] | 3.71 |  | 90 to 100 | 90 to 100 |  | 70 to 79 | 90 to 100 | 90 to 100
12 | O=C(N[C@H]1CCSc2ccc(F)cc21)c1c(Oc2cccc(C(F)(F)F)c2)nnc2ccccc12 (racemic) [I-095] | 4.02 |  | 90 to 100 | 90 to 100 | 80 to 89 | 70 to 79 | 90 to 100 | 
13 | C[C@@H]1CC[C@H](NC(=O)c2c(Oc3cccc(C(F)(F)F)c3)nnc3ccccc23)c2ccccc21 (mixture of isomers) [I-079] | 4.42 |  | 90 to 100 | 90 to 100 | 90 to 100 |  | 90 to 100 | 90 to 100
14 | O=C(C[C@H]1C[C@@]12CCc1cc(Br)ccc12)c1c(Oc2cccc(C(F)(F)F)c2)nnc2ccccc12 (mixture of isomers) [I-097] | 4.74 |  | 90 to 100 | 80 to 89 | 90 to 100 | 80 to 89 | 90 to 100 | 

Now from value to compound, other results behind:

Row | chromatographic logP [1] | LogP [1] | SMILES | inhibition at 20 ppm (Pyrenophora teres) [%] | pest or weed control at 500 ppm (Botrytis cinerea [2]) [%] | inhibition at 20 ppm [3] [%] | inhibition at 20 ppm (Alternaria alternata) [%] | inhibition at 20 ppm (Botrytis cinerea [4]) [%] | pest or weed control at 500 ppm (Alternaria brassicae) [%]
15 | 4.11 |  | Cc1scc(CCNC(=O)c2c(Oc3cccc(C(F)(F)F)c3)nnc3ccccc23)c1C [I-093] | 90 to 100 | 90 to 100 | 90 to 100 | 70 to 79 | 90 to 100 | 90 to 100
16 | 3 |  | O=C(NCCn1cc(Cl)cn1)c1c(Oc2cccc(C(F)(F)F)c2)nnc2ccccc12 [I-244] | 90 to 100 | 80 to 89 | 90 to 100 | 90 to 100 | 90 to 100 | 90 to 100
17 | 3.45 |  | O=C(NCCc1ccc2c(c1)OCO2)c1c(Oc2cccc(C(F)(F)F)c2)nnc2ccccc12 [I-092] | 90 to 100 | 90 to 100 | 90 to 100 | 90 to 100 | 90 to 100 | 90 to 100
18 | 4.1 |  | C[C@H](NC(=O)c1c(Oc2cccc(C(F)(F)F)c2)nnc2ccccc12)c1ccc(Cl)s1 (racemic) [I-080] | 90 to 100 |  | 90 to 100 | 90 to 100 | 90 to 100 | 
19 | 3.63 |  | CC(C)Oc1ccc(CCNC(=O)c2c(Oc3cccc(C(F)(F)F)c3)nnc3ccccc23)cn1 [I-087] | 90 to 100 |  | 90 to 100 | 90 to 100 | 90 to 100 | 80 to 89
20 | 3.94 |  | O=C(NCCOc1ccc(Cl)cc1)c1c(Oc2cccc(C(F)(F)F)c2)nnc2ccccc12 [I-085] | 90 to 100 |  | 80 to 89 | 90 to 100 | 90 to 100 | 90 to 100
21 | 2.74 |  | Cc1cnn(CCNC(=O)c2c(Oc3cccc(C(F)(F)F)c3)nnc3ccccc23)c1 [I-076] | 90 to 100 |  | 90 to 100 |  | 90 to 100 | 80 to 89
22 | 3.6 |  | Cc1ccc(CCNC(=O)c2c(Oc3cccc(C(F)(F)F)c3)nnc3ccccc23)o1 [I-075] | 90 to 100 |  | 90 to 100 | 90 to 100 | 90 to 100 | 
